Test: ORAC (oxygen radical absorption capacity) test
Type: biochemical
Settings: Trolox equivalent
Procedure: The antioxidation capacity of the combination of propolis and each sample was verified by an oxygen radical absorption capacity (ORAC) test. The following samples were used.
Propolis: ethanol extract powder (Brazilian green propolis, containing arginine as an excipient)
Phosphatidylserine: synthetic product
Coffee fruit extract: water/ethanol extract powder
Gotu kola extract: water extract powder (containing less than 10% of maltodextrin as an excipient)
Each sample was dissolved in a 50% ethanol aqueous solution. […]
The obtained test solution was diluted with a 75 mM phosphate buffer and put into a 96-well plate, and a fluorescein solution was added thereto. When the 96-well plate was heated to 37° C., AAPH (2,2′-azobis(2-amidinopropane)dihydrochloride) was added, and the fluorescence intensity decay time was measured with a microplate reader every 5 minutes for 1.5 hours. A standard curve was created using Trolox as a standard reagent, and the antioxidation power of each sample was calculated as a Trolox equivalent (μmol TE/g).
In Table 1, the expected value is a sum of ORAC values of respective components alone in each combination. The rate of increase is a value obtained by multiplying a result obtained by dividing the measured value by the expected value by 100.

Phosphatidylserine
Single raw material ORAC: 12 μmol TE/g
